Data taken from patent US6441195B1, “Substituted sulphonylamino(thio) carbonyl compounds” (Bayer Aktiengesellschaft, priority 1995, dated 2002).

Columns and labels:
Format in all cases: in vivo
[1] = tested on: weeds; assay: Pre-emergence test (greenhouse), activity against weeds; settings: in words
In short: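 Compound formulated in acetone with alkylaryl polyglycol ether emulsifier, diluted in water, and watered onto soil about 24 h after sowing, dosed by application rate per unit area. Damage rated after three weeks as % versus untreated control (0% = no action).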

[2] = tested on: Maize; assay: Pre-emergence test/Greenhouse, Maize; settings: in vivo
In short: (§1)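 Percent damage relative to untreated control plants, scored three weeks after treatment, is the read-out (0% meaning no effect). Treatment consisted of watering the soil with an emulsified aqueous preparation roughly 24 h after seeds were sown, at constant water volume per area.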

[3] = tested on: Soya beans; assay: Pre-emergence test/Greenhouse, Soya beans; settings: in vivo
In short: as §1

[4] = tested on: Lolium; assay: Pre-emergence test/Greenhouse, Lolium; settings: after three weeks
In short: as §1

[5] = tested on: Poa; assay: Pre-emergence test/Greenhouse, Poa; settings: after three weeks
In short: as §1

[6] = tested on: Sorghum; assay: Pre-emergence test/Greenhouse, Sorghum; settings: after three weeks
In short: as §1

[7] = tested on: Ambrosia; assay: Pre-emergence test/Greenhouse, Ambrosia; settings: after three weeks
In short: as §1

[8] = tested on: Matricaria; assay: Pre-emergence test/Greenhouse, Matricaria; settings: after three weeks
In short: as §1

[9] = tested on: Solanum; assay: Pre-emergence test/Greenhouse, Solanum; settings: after three weeks
In short: as §1

| SMILES | activity against weeds [1] | degree of damage to the plants (% damage vs untreated control), Maize [2] [%] | degree of damage to the plants (% damage vs untreated control), Soya beans [3] [%] | degree of damage to the plants (% damage vs untreated control), Lolium ([4]; 125 g of ai./ha) [%] | degree of damage to the plants (% damage vs untreated control), Poa ([5]; 125 g of ai./ha) [%] | degree of damage to the plants (% damage vs untreated control), Sorghum ([6]; 125 g of ai./ha) [%] | degree of damage to the plants (% damage vs untreated control), Ambrosia ([7]; 125 g of ai./ha) [%] | degree of damage to the plants (% damage vs untreated control), Matricaria ([8]; 125 g of ai./ha) [%] | degree of damage to the plants (% damage vs untreated control), Solanum ([9]; 125 g of ai./ha) [%] | further results |
| --- | --- | --- | --- | --- | --- | --- | --- | --- | --- | --- |
| CCOc1nn(C(=O)NS(=O)(=O)c2c(OC)cccc2C(=O)OC)c(=O)n1C [Example 136] | very strong activity against weeds | 30 | 20 | 95 | 95 | 90 | 80 | 90 | 95 |  |
| CCCOC(=O)c1cccc(C)c1S(=O)(=O)NC(=O)n1nc(OCC)n(C)c1=O [Example 21] | very strong activity against weeds | 0 | 0 | 95 | 95 | 95 | 95 | 95 | 95 |  |
| COC(=O)c1cccc(C)c1S(=O)(=O)NC(=O)n1nc(SCC(F)(F)F)n(C2CC2)c1=O [Example 149] | very strong activity against weeds | 0 | 30 | 95 | 95 | 80 | 95 | 95 | 95 |  |
| CCOC(=O)c1cccc(Cl)c1S(=O)(=O)NC(=O)n1nc(SC)n(C)c1=O [Example 131] | very strong activity against weeds | 0 | 0 |  |  |  |  |  |  | degree of damage to the plants (% damage vs untreated control), Lolium ([4]; 250 g of ai./ha): 95%; degree of damage to the plants (% damage vs untreated control), Poa ([5]; 250 g of ai./ha): 90%; degree of damage to the plants (% damage vs untreated control), Sorghum ([6]; 250 g of ai./ha): 90%; degree of damage to the plants (% damage vs untreated control), Ambrosia ([7]; 250 g of ai./ha): 95%; degree of damage to the plants (% damage vs untreated control), Matricaria ([8]; 250 g of ai./ha): 80%; degree of damage to the plants (% damage vs untreated control), Solanum ([9]; 250 g of ai./ha): 95% |
| COC(=O)c1cccc(C)c1S(=O)(=O)NC(=O)n1nc(SC)n(OC)c1=O [Example 156] | very strong activity against weeds | 0 | 10 |  |  |  |  |  |  | degree of damage to the plants (% damage vs untreated control), Lolium ([4]; 60 g of ai./ha): 70%; degree of damage to the plants (% damage vs untreated control), Poa ([5]; 60 g of ai./ha): 90%; degree of damage to the plants (% damage vs untreated control), Sorghum ([6]; 60 g of ai./ha): 70%; degree of damage to the plants (% damage vs untreated control), Ambrosia ([7]; 60 g of ai./ha): 70%; degree of damage to the plants (% damage vs untreated control), Matricaria ([8]; 60 g of ai./ha): 95%; degree of damage to the plants (% damage vs untreated control), Solanum ([9]; 60 g of ai./ha): 70% |
| Cc1nc(C(=O)NS(=O)(=O)c2c(C)cccc2C(=O)OC(C)C)no1 [Example 12] | very strong activity against weeds | 0 | 0 | 80 | 80 | 60 | 95 | 95 | 95 |  |
